Measurements published in publication PMC4682109, “The experimental power of FR900359 to study Gq-regulated biological processes” (Nature Communications, 2015).
Read-outs that look alike come from different tables or passages of the source. Starred links: 1 amine or outer side, 2 acyl side, 3 side chain; linkers in the order of their positions; H or OH if unused. Positions of bridges follow the written chain, without caps; N, C: chain ends. Non-standard residues stand in square brackets, D forms with d. Residues, ends and D or L forms follow the SMILES beside them. ξ: configuration not given here. *: point of attachment. Leu(3R-OH,Nα-propionyl) = CCC(=O)N[C@H](C(=O)*)[C@H](O)C(C)C; X1 = CC(C)[C@@H](O[*:3])[C@H](N[*:1])C(=O)[*:2]; NMeT = CN[C@H](C(=O)O)[C@@H](C)O; dPhLac = O=C(O)[C@H](O)Cc1ccccc1; NMeA = CN[C@@H](C)C(=O)O; NMeDha = C=C(NC)C(=O)O; ξNMeA = CNC(C)C(=O)O

Experiments:
Gq = target: T1, Gq (Cricetulus griseus, UniProt Q3HR10); assay: IP1 accumulation in M1-CHO cells, carbachol; format: cell-based, Chinese hamster; conditions: carbachol 30 µM, means ± SEM of at least three experiments, read-out: pIC50, IP1 (% of 30 µM carbachol) (converted)
T1 construct: endogenous in cells; host or cells: M1-CHO cells
T1 sequence (Q3HR10 1-359): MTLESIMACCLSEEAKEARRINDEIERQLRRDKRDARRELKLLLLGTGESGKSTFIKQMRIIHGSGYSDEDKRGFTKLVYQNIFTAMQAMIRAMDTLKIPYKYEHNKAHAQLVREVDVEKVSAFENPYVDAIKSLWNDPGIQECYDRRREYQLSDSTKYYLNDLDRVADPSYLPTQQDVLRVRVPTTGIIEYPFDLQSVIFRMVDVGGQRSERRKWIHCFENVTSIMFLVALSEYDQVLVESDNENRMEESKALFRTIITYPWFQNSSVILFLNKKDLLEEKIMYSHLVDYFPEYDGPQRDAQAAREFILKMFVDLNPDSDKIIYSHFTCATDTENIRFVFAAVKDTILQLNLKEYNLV
Protocol: (§1) Quantification of intracellular cAMP and IP1 was performed using the HTRF-cAMP dynamic kit and the HTRF-IP1 kit, respectively, on a Mithras LB 940 reader (Berthold Technologies) according to the manufacturer's instructions. For cAMP assays with M2-CHO cells, the Gi-biased muscarinic agonist iper-6-phth (ref. [30]) was applied.
Supplementary Figure 12: Catalytic hydrogenation of FR to produce “FR-red” and determination of its Gq-inhibitory activity. (a) The exocyclic double bond (yellow box) of FR was hydrogenated by hydrogen gas in the presence of palladium/carbon as a catalyst in a pressure tube in analogy to a procedure published for the hydrogenation of YM2. The structure of the product FR-red was confirmed by high performance liquid chromatography coupled to electrospray ionization mass spectrometry (LCMS) and by 1H- and 13C-NMR spectra. (b) M1-CHO cells were pre-incubated with increasing concentrations of FR or (also on this page, place not known: “FR -red” hydrogen ation YM 2. -red FR a b -8 -7 -6 -5 0 25 50 75 100 FR compound (log M) IP1 (% of 30 µM carbachol) FR FR-red)
(1 picture or pasted object on this page, not shown here)
FR-red and IP1 accumulation was determined in response to carbachol (30 µM). Inhibition of Gq protein […]
± 0.05). Data are means ± SEM of at least three independent experiments each performed in triplicate.

ERK1/2 = assay: HTRF-based ERK1/2 phosphorylation assay in melanoma cell lines; parameters: species or system human and mouse; conditions: 1 μM, 1 h
Protocol: Quantification of phosphorylated ERK1/2 levels was performed using the phospho-ERK (Thr202/Tyr204) cellular assay kit (Cisbio). Melanoma cells were seeded into 96-well plates at a density of 25,000 or 50,000 cells per well and cultured overnight. The next day, medium was aspirated and cells were treated with 1 μM FR, 1 μM Trametinib, 1 μM Vemurafenib, or medium for 1 h at 37 °C. Subsequently, medium and inhibitors were removed and 50 μl lysis buffer were added to each well. The plates were incubated for 30 min at room temperature with shaking to lyse the cells and then frozen overnight at −20 °C. Lysates (16 μl) were transferred to a white 384-well plate. Anti-phospho-ERK1/2-d2 (2 μl) and anti-phospho-ERK1/2-Eu3^+-cryptate (2 μl) were added to each well and plates were incubated in the dark for 2 h at room temperature. Time-resolved fluorescence resonance energy transfer (FRET) signals were measured using the Mithras LB 940 multimode reader (Berthold Technologies).

[1] = tested on: CRTH2 β-arrestin2 recruitment; assay: BRET2 β-arrestin2 recruitment to CRTH2; format: cell-based; conditions: CRTH2-RLuc-GFP2-β-arrestin2-HEK293; PTX 16-20 h, FR 30 min
Protocol: For BRET^2 assays on HEK293 cells stably expressing CRTH2-Luc and GFP^2-β-arrestin2, cells were detached and resuspendend in HBSS with 20 mM HEPES at a density of 1.06 × 10^6 cells per ml. Cell suspension (170 μl) was distributed into white 96-well microplates and incubated in the presence of 10 μl buffer or agonist for 5 min before substrate addition. DeepBlueC coelenterazine (Gold Biotechnology, MO, USA; 20 μl per well) was injected by injector 3 to yield a final concentration of 5 μM. To detect BRET, light emissions at 400 and 515 nm were measured sequentially using a Mithras LB 940 instrument. The BRET signal (BRET ratio) was determined by calculating the ratio of the light emitted by the fluorescence acceptor (515 nm) and the light emitted by Rluc (400 nm). The cells were pretreated with PTX for 16–20 h and FR for 30 min.

[2] = tested on: Gi-sensitive prostaglandin D2 receptor DP2/CRTH2; assay: cAMP lowering (HTRF), Gi-sensitive CRTH2 in CRTH2-HEK293; format: cell-based; conditions: CRTH2-RLuc-GFP2-β-arrestin2-HEK293, PTX pretreatment
Protocol: as §1

[3] = tested on: HEK293 Gαq/11 knockout cells; assay: Annexin V flow cytometry in HEK293 Gαq/11 knockout cells; format: cell-based; conditions: FR 10 μM, 72 h; representative experiment
Excerpt: For apoptosis analysis of HEK293 cells, cells were stained for Annexin V by use of the Annexin V-FITC Apoptosis Detection Kit (Calbiochem) according to the manufacturer's instructions.

[4] = target: T2, purified recombinant Gαq (GαqΔ34) (Mus musculus, UniProt P21279); assay: [3H]GDP dissociation from purified Gαq; format: biochemical
T2 construct: first 28 residues of rat Gαi1 (GNAI1, P10824 by own knowledge) (N); TEV-cleavage site (N); made in house; host or cells: insect cells (Sf9), pFastBac1 vector
T2 sequence (P21279 35-359): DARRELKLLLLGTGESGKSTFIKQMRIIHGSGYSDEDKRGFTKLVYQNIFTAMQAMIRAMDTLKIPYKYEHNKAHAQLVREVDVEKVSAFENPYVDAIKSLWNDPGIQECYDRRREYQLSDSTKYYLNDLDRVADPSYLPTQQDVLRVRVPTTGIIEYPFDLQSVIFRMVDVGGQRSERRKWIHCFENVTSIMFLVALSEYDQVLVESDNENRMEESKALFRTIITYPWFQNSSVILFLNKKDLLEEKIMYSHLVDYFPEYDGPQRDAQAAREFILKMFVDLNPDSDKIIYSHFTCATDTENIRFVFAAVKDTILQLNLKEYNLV
Protocol: GαqΔ34 (containing the first 28 residues of rat Gαi1 fused to mouse Gαq lacking the first 34 residues, and with a TEV-cleavage site between the Gαi1 and Gαq sequences) was purified after expression from a pFastBac1 vector in insect cells. Purified GαqΔ34 (∼7 mg ml^−1) was stored at −80 °C in 20 mM HEPES pH 8, 0.2 mM dithiothreitol, 2% (v/v) glycerol, 100 mM NaCl, 0.1 mg ml^−1 PMSF augmented with 10 mM NaF, 30 μM AlCl3, and 5 mM MgCl2.
[^3H]GDP exchange by Gαq was measured based on previous protocols. Briefly, purified GαqΔ34 (100 nM) was incubated with 1 μM [^3H]GDP (42,500 c.p.m. pmol^−1) and 50 mM (NH4)2SO4 for 18 h at 20 °C in assay buffer A (50 mM HEPES pH 7.5, 1 mM EDTA, 0.9 mM MgSO4, 1 mM dithiothreitol, and 0.05% Genapol C-100). Excess [^3H]GDP was removed from Gαq using a ZebaTM spin desalting column following the manufacturer's protocol (Thermo Scientific). Approximately 20% of Gαq incorporated the radiolabelled nucleotide. The reaction mixtures were then mixed with the same volume of assay buffer A in the presence of 0.1–2% dimethylsulphoxide (DMSO), 0–200 nM FR and 1.5 M (NH4)2SO4 to reach final concentrations of […] DMSO, 0–100 nM FR and 750 mM (NH4)2SO4 in the reaction. Dissociation of [^3H]GDP was monitored at 20 °C by stopping the reaction by addition of 4 ml of an ice-cold wash buffer (20 mM Tris pH 8.0, 100 mM NaCl and 2 mM MgSO4). The quenched mixtures were filtered through nitrocellulose membranes, the membranes were washed four times with ice-cold wash buffer, and the filters air-dried for at least 10 min. Radioactivity was quantified by scintillation spectrometry.
Supplementary Table 1: logEC values of the inhibitory effect of FR on [3H]GDP dissociation were
independent of the time point used for quantification.
[3H]GDP binding to purified Gαq proteins was quantified in presence of increasing concentrations of FR
after four different time points (30 min, 60 min, 90 min, 120 min). Data were analyzed by fitting [3H]GDP
binding versus FR concentration to the four parameter logistic function and the logarithm of the half
maximal effective concentrations (logEC50 expressed as means ± SEM from the respective curves in Fig.
7h) for FR-induced inhibition of [3H]GDP dissociation are presented.

B16 cells = assay: XTT metabolic activity of B16 cells; format: cell-based, mouse; conditions: 72 h of FR treatment
Protocol: (§2) B16 cell viability in the presence of various concentrations of FR was measured using the XTT-based cell proliferation kit II (Fa. Roche) according to the manufacturer's protocols. Viability of HEK293 cell lines was assessed using a fluorimetric detection of resorufin (CellTiter-Blue Cell Viability Assay, Promega). Specifically, Gαq/11 ko-HEK293 and HEK293 cells were seeded at a density of 20,000 and 25,000 cells per well into black 96-well poly-D-lysine-coated plates with clear bottom, respectively. Three hours after seeding cells were treated with 0.3% DMSO or FR dissolved in medium for 24 h. To detect cell viability, CellTiter-Blue reagent was added and cells were incubated for 1 h at 37 °C according to the manufacturer's instructions. Fluorescence (excitation 560 nm, emission 590 nm) was measured using a FlexStation 3 Benchtop Multimode Plate Reader and data were expressed as percentage of cell viability relative to DMSO control.

[5] = tested on: HEK293 Gαq/11 knockout cells; assay: Cell growth and Ki67 staining in HEK293 Gαq/11 knockout cells; format: cell-based; conditions: FR 10 μM
Protocol: For analysis of growth properties of HEK293 cells, 10^5 HEK 293 cells per well were seeded on a 6-well tissue culture plate. After 3 h cells were treated with either 10 μmol FR or 0.1% DMSO. After 72 h cell number was determined by counting in a Neubauer chamber.
Cells grown on coverslips were fixed with 4% paraformaldehyde in PBS and stained with antibodies as follows (in 0.2% Triton X in PBS, supplemented with 5% donkey serum; 2 h at room temperature): Ki67 MIB-1 (1:200, Covance) and vimentin (1:1,000, Chemicon). Primary antibodies were visualized by secondary antibodies conjugated to Cy5 (1:400, Jackson ImmunoResearch) diluted in 1 μg ml^−1 Hoechst 33342 (nuclei staining) at room temperature for 1 h. For documentation an inverted fluorescence microscope (Axiovert 200; Carl Zeiss MicroImaging, Inc.) equipped with a slider module (ApoTome; Carl Zeiss MicroImaging, Inc.), using filters for DAPI, GFP, Cy3 and Cy5, x25, x40 DIC Plan Apochromat oil objectives, an ebx 75 light source and an AxioCam MRm digital camera was used. Pictures were generated with the Axiovision Rel. 4.8 software (Zeiss).

[6] = tested on: HEK293 wild type and HEK293 Gαq/11 knockout cells; assay: Cell viability (CellTiter-Blue, resazurin) in HEK293 wild type and Gαq/11 knockout cells; format: cell-based; conditions: supramaximal FR concentrations, 24 h
Protocol: as §2

CCC(=O)N[C@H](C(=O)O[C@H](C(C)C)[C@@H]1NC(=O)[C@H](C)N(C)C(=O)[C@H](C)NC(=O)C(C)N(C)C(=O)[C@@H](Cc2ccccc2)OC(=O)[C@@H](NC(C)=O)[C@@H](C(C)C)OC(=O)[C@H]([C@@H](C)OC)N(C)C1=O)[C@H](O)C(C)C (stereo partly drawn) [FR-red] (Ac-[X1][dPhLac][ξNMeA]A[NMeA][X1](Leu(3R-OH,Nα-propionyl))[NMeT](Me); ester 1-C)
IC50 (Gq): 0.891 µM

CCCS(=O)(=O)Nc1ccc(F)c(C(=O)c2c[nH]c3ncc(-c4ccc(Cl)cc4)cc23)c1F [Vemurafenib]
ERK phosphorylation (ERK1/2): inhibited ERK activation only in cell lines harbouring the mutant B-RafV600E allele

pertussis toxin [PTX]
PGD2-induced β-arrestin recruitment to CRTH2 [1]: without effect
CRTH2-dependent lowering of cAMP [2]: fully prevented

C=C1C(=O)N[C@@H](C)C(=O)N(C)[C@@H](C)C(=O)N[C@@H]([C@H](OC(=O)[C@@H](NC(=O)CC)[C@H](O)C(C)C)C(C)C)C(=O)N(C)[C@@H]([C@@H](C)OC)C(=O)O[C@H](C(C)C)[C@H](NC(C)=O)C(=O)O[C@H](Cc2ccccc2)C(=O)N1C [FR, FR900359] (Ac-[X1][dPhLac][NMeDha]A[NMeA][X1](Leu(3R-OH,Nα-propionyl))[NMeT](Me); ester 1-C)
Annexin V [3]: 2.06%
EC50 ([4]; [3H]GDP binding to Gαq after 120 min dissociation, 20 °C, read-out: half effective concentration, prevention of [3H]GDP dissociation): 0.015 µM
EC50 ([4]; time 30 min, read-out: logEC50, inhibition of [3H]GDP dissociation (converted)): 0.0155 µM
EC50 ([4]; time 60 min, read-out: logEC50, inhibition of [3H]GDP dissociation (converted)): 0.0123 µM
EC50 ([4]; time 90 min, read-out: logEC50, inhibition of [3H]GDP dissociation (converted)): 0.0132 µM
EC50 ([4]; time 120 min, read-out: logEC50, inhibition of [3H]GDP dissociation (converted)): 0.0155 µM
mitochondrial metabolism (XTT) (B16 cells): did not compromise mitochondrial metabolism
percentage of proliferating cells (Ki67) ([5]; 24 h): did not alter
cell growth ([5]; 72 h): did not alter
IC50 (Gq): 0.263 µM
cell viability / cellular metabolic homoeostasis [6]: does not disturb cellular metabolic homoeostasis

CC(=O)Nc1cccc(-n2c(=O)n(C3CC3)c(=O)c3c(Nc4ccc(I)cc4F)n(C)c(=O)c(C)c32)c1 [Trametinib]
ERK phosphorylation (ERK1/2): blunted ERK phosphorylation in all cell lines
